Reference: ChEMBL document CHEMBL1201862, “PubChem BioAssay data set” (2004)
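48-hour exposure; five concentrations; linearly interpolated endpoints. Here, GI50 denotes the concentration required for 50% inhibition of growth.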 Active and inactive are the calls of the source. Cut-off read from the data, not from the text of the source: active = GI50 up to about 1.1 µM and inactive = higher.

Columns and labels:
Assay in all cases: NCI anticancer screen, dose series, 48 h
SF-295 = system: SF-295
COLO 205 = system: COLO 205
SF-539 = system: SF-539
CCRF-CEM = system: CCRF-CEM
IGROV-1 = system: IGROV-1
SN12C = system: SN12C
OVCAR-5 = system: OVCAR-5
HOP-92 = system: HOP-92
OVCAR-8 = system: OVCAR-8
SK-MEL-2 = system: SK-MEL-2
Malme-3M = system: Malme-3M
NCI/ADR-RES = system: NCI/ADR-RES
ACHN = system: ACHN
OVCAR-4 = system: OVCAR-4
NCI-H23 = system: NCI-H23
UACC-257 = system: UACC-257
SK-OV-3 = system: SK-OV-3
SF-268 = system: SF-268
HOP-62 = system: HOP-62
DU-145 = system: DU-145
SW-620 = system: SW-620
MCF7 = system: MCF7
LOX IMVI = system: LOX IMVI
HL-60 = system: HL-60
CAKI-1 = system: CAKI-1
MDA-N = system: MDA-N
NCI-H226 = system: NCI-H226
TK-10 = system: TK-10
MDA-MB-435 = system: MDA-MB-435
RXF 393 = system: RXF 393
M14 = system: M14
K562 = system: K562
NCI-H460 = system: NCI-H460
HCT-116 = system: HCT-116
MDA-MB-231 = system: MDA-MB-231
A549 = system: A549
HT-29 = system: HT-29
HCC 2998 = system: HCC 2998
HCT-15 = system: HCT-15
UACC-62 = system: UACC-62
A498 = system: A498
SNB-75 = system: SNB-75
OVCAR-3 = system: OVCAR-3
U-251 = system: U-251
SNB-19 = system: SNB-19
NCI-H522 = system: NCI-H522
SK-MEL-28 = system: SK-MEL-28
UO-31 = system: UO-31
Hs-578T = system: Hs-578T
786-0 = system: 786-0
SK-MEL-5 = system: SK-MEL-5
PC-3 = system: PC-3
BT-549 = system: BT-549
RPMI-8226 = system: RPMI-8226
KM12 = system: KM12
MOLT-4 = system: MOLT-4
SR = system: SR
EKVX = system: EKVX

O=c1c2ccccc2nc(N/N=C/c2ccccc2O)n1-c1ccccc1
GI50 (SF-295): 6.4 µM (inactive)
GI50 (COLO 205): 3.99 µM (inactive)
GI50 (SF-539): 5.31 µM (inactive)
GI50 (CCRF-CEM): 3.27 µM (inactive)
GI50 (IGROV-1): 5.6 µM (inactive)
GI50 (SN12C): 6.24 µM (inactive)
GI50 (OVCAR-5): 7.18 µM (inactive)
GI50 (HOP-92): 13 µM (inactive)
GI50 (OVCAR-8): 1.99 µM (inactive)
GI50 (SK-MEL-2): 7.67 µM (inactive)
GI50 (Malme-3M): 12.2 µM (inactive)
GI50 (NCI/ADR-RES): 2.27 µM (inactive)
GI50 (ACHN): 3.62 µM (inactive)
GI50 (OVCAR-4): 5.18 µM (inactive)
GI50 (NCI-H23): 6.21 µM (inactive)
GI50 (UACC-257): 5.04 µM (inactive)
GI50 (SK-OV-3): 13.8 µM (inactive)
GI50 (SF-268): 2.13 µM (inactive)
GI50 (HOP-62): 5.25 µM (inactive)
GI50 (DU-145): 5 µM (inactive)
GI50 (SW-620): 5.75 µM (inactive)
GI50 (MCF7): 3.33 µM (inactive)
GI50 (LOX IMVI): 4.04 µM (inactive)
GI50 (HL-60): 2.65 µM (inactive)
GI50 (CAKI-1): 5.62 µM (inactive)
GI50 (MDA-N): 7.64 µM (inactive)
GI50 (NCI-H226): 5.41 µM (inactive)
GI50 (TK-10): 6.43 µM (inactive)
GI50 (MDA-MB-435): 4.71 µM (inactive)
GI50 (RXF 393): 17.1 µM (inactive)
GI50 (M14): 4.52 µM (inactive)
GI50 (K562): 4.5 µM (inactive)
GI50 (NCI-H460): 4.01 µM (inactive)
GI50 (HCT-116): 2.88 µM (inactive)
GI50 (MDA-MB-231): 4.59 µM (inactive)
GI50 (A549): 4.8 µM (inactive)
GI50 (HT-29): 4.55 µM (inactive)
GI50 (HCC 2998): 5.27 µM (inactive)
GI50 (HCT-15): 2.97 µM
GI50 (UACC-62): 2.77 µM (inactive)
GI50 (A498): > 100 µM (inactive)
GI50 (SNB-75): 11 µM (inactive)
GI50 (OVCAR-3): 3.49 µM (inactive)
GI50 (U-251): 5.2 µM (inactive)
GI50 (SNB-19): 56.5 µM (inactive)
GI50 (NCI-H522): 4.84 µM (inactive)
GI50 (SK-MEL-28): 11.4 µM (inactive)
GI50 (UO-31): 2.54 µM (inactive)
GI50 (Hs-578T): 7.82 µM (inactive)
GI50 (786-0): 1.53 µM (inactive)
GI50 (SK-MEL-5): 4.56 µM (inactive)
GI50 (PC-3): 3.57 µM (inactive)
GI50 (BT-549): 41.5 µM (inactive)

C=CCn1c(=O)c(C(=O)Nc2nc(C34CC5CC(CC(C5)C3)C4)cs2)c(O)c2ccccc21
GI50 (SF-295): 17.9 µM (inactive)
GI50 (COLO 205): 18.1 µM (inactive)
GI50 (SF-539): 60.8 µM (inactive)
GI50 (CCRF-CEM): 37.3 µM (inactive)
GI50 (IGROV-1): 33.1 µM (inactive)
GI50 (SN12C): 45.5 µM (inactive)
GI50 (OVCAR-5): 91.6 µM (inactive)
GI50 (HOP-92): 28.4 µM (inactive)
GI50 (OVCAR-8): 82.8 µM (inactive)
GI50 (Malme-3M): 26 µM (inactive)
GI50 (NCI/ADR-RES): 15 µM (inactive)
GI50 (ACHN): 29.5 µM (inactive)
GI50 (OVCAR-4): 39.2 µM (inactive)
GI50 (NCI-H23): 34.3 µM (inactive)
GI50 (UACC-257): 10.2 µM (inactive)
GI50 (SF-268): > 10 µM (inactive)
GI50 (HOP-62): 30.6 µM (inactive)
GI50 (DU-145): 47.8 µM (inactive)
GI50 (SW-620): 23.5 µM (inactive)
GI50 (MCF7): 50.6 µM (inactive)
GI50 (LOX IMVI): 34 µM (inactive)
GI50 (HL-60): 23.4 µM (inactive)
GI50 (CAKI-1): 58.9 µM (inactive)
GI50 (RPMI-8226): 20.1 µM (inactive)
GI50 (MDA-N): 48.6 µM (inactive)
GI50 (NCI-H226): 50.7 µM (inactive)
GI50 (TK-10): 82.8 µM (inactive)
GI50 (KM12): 30.1 µM (inactive)
GI50 (MDA-MB-435): 63.4 µM (inactive)
GI50 (RXF 393): 31.6 µM (inactive)
GI50 (MOLT-4): 27.4 µM (inactive)
GI50 (SR): 37.1 µM (inactive)
GI50 (K562): 15.1 µM (inactive)
GI50 (NCI-H460): 32.9 µM (inactive)
GI50 (HCT-116): 30 µM (inactive)
GI50 (MDA-MB-231): 22 µM (inactive)
GI50 (A549): 18.2 µM (inactive)
GI50 (HT-29): 19.1 µM (inactive)
GI50 (HCC 2998): 37.5 µM (inactive)
GI50 (HCT-15): 21.5 µM
GI50 (A498): 25.3 µM (inactive)
GI50 (SNB-75): > 100 µM (inactive)
GI50 (OVCAR-3): 49.3 µM (inactive)
GI50 (U-251): 50.2 µM (inactive)
GI50 (SNB-19): 53.6 µM (inactive)
GI50 (NCI-H522): 44 µM (inactive)
GI50 (SK-MEL-28): 63 µM (inactive)
GI50 (UO-31): 31.8 µM (inactive)
GI50 (EKVX): 30.5 µM (inactive)
GI50 (Hs-578T): 32.4 µM (inactive)
GI50 (786-0): 39.8 µM (inactive)
GI50 (SK-MEL-5): 34.4 µM (inactive)
GI50 (PC-3): 43.4 µM (inactive)
GI50 (BT-549): 24.4 µM (inactive)
